These results are taken from US8975234B2, “Anti-bacterial infection, inflammation, and leukemia composition and use thereof” (priority 2011, dated 2015).

Holding throughout (assay): Minimum inhibitory concentration (broth microdilution) and FIC index
Background: Dilution methods test growth across graded concentrations, often in twofold steps.

The subject of assay [1] is MSSA (Methicillin-susceptible Staphylococcus aureus). It is filed as cell-based. To be noted: MSSA. On the procedure:
(§1) A serial of twofold dilution of the tested antibiotics (oxacillin, erythromycin, ampicillin, kanamycin, levofoxacin, vancomycin and doxycycline) was perform by Broth microdilution method to a final concentration of 2-512 μg/mL. The bacterial overnight culture was collected and re-suspended in the Muller-Hilton (M-H) broth. An aliquot of cell suspension (OD600=0.1) was prepared. The bacterial suspensions were plated in 96-well plate and incubated with test antibiotics at 37° C. in a 5% CO2 incubator (Table 1 to Table 4).
(§2) The […], […] and antagonism between two drugs was evaluated by the following formula:
(§3) [formula] The criteria of fractional inhibitory concentration index: […]

A further assay relates to MRSA 18271. It is filed as cell-based, Staphylococcus aureus. As for the experimental part:
as §1, §2, §3

The next assay deals with MRSA 18631. It counts as cell-based, Staphylococcus aureus. As for the experimental part: as §1, §2, §3
The next assay relates to MRSA 19615. It is filed as cell-based, Staphylococcus aureus. On the procedure:
as §1, §2, §3

The mark [2] stands for this setting: Table 3, Tellimagrandin II (40 μg/ml) +.
Where [3] appears, read: Table 3, 18271, Tellimagrandin II (40 μg/ml) +.
Setting [4] is: Table 3, 18631, Tellimagrandin II (40 μg/ml) +.
[5] abbreviates: Table 3, 19615, Tellimagrandin II (40 μg/ml) +.

In general, MIC refers to the lowest concentration that inhibits growth of the organism. `CN[C@H](CC(C)C)C(=O)N[C@H]1C(=O)N[C@@H](CC(N)=O)C(=O)N[C@H]2C(=O)N[C@H]3C(=O)N[C@H](C(=O)N[C@H](C(=O)O)c4cc(O)cc(O)c4-c4cc3ccc4O)[C@H](O)c3ccc(c(Cl)c3)Oc3cc2cc(c3O[C@@H]2O[C@H](CO)[C@@H](O)[C@H](O)[C@H]2O[C@H]2C[C@](C)(N)[C@H](O)[C@H](C)O2)Oc2ccc(cc2Cl)[C@H]1O` [Vancomycin]: the MIC in assay [1] (Staphylococcus aureus) was greater than 2 µg/mL; in assay [1] (setting [2]), greater than 2 µg/mL; with MRSA 18271 (Staphylococcus aureus, MRSA), 4 µg/mL; in the assay on MRSA 18271 (setting [3]) it was 4 µg/mL; in the assay with MRSA 18631 (Staphylococcus aureus, MRSA), 4 µg/mL; with MRSA 18631 (setting [4]) it was 4 µg/mL. Further, the MIC came out at 4 µg/mL in the assay with MRSA 19615 (Staphylococcus aureus, MRSA) and 4 µg/mL with MRSA 19615 (setting [5]). Also, the FIC with MRSA 18271 (setting [3]), with MRSA 18631 (setting [4]) and with MRSA 19615 (setting [5]) was 1.00 throughout.

In the case of `CC1(C)S[C@@H]2[C@H](NC(=O)[C@H](N)c3ccccc3)C(=O)N2[C@H]1C(=O)O` [Ampicillin], the MIC in assay [1] (Staphylococcus aureus) was found to be 512 µg/mL; in assay [1] (setting [2]), 256 µg/mL; in the assay on MRSA 18271 (Staphylococcus aureus, MRSA), 512 µg/mL; in the assay on MRSA 18271 (setting [3]) it was 16 µg/mL; in the assay with MRSA 18631 (Staphylococcus aureus, MRSA), 512 µg/mL; with MRSA 18631 (setting [4]), 512 µg/mL. Besides, the MIC with MRSA 19615 (Staphylococcus aureus, MRSA) was found to be 512 µg/mL; in the assay on MRSA 19615 (setting [5]), 512 µg/mL. Also, the FIC in assay [1] (setting [2]) is given as 0.50; with MRSA 18271 (setting [3]), 0.031; with MRSA 18631 (setting [4]), 1.00; with MRSA 19615 (setting [5]) it was 1.00.
